Data reported in BindingDB's records for doi:10.1124/jpet.105.083436 (Louisiana State University, 2005).

Target: Nociceptin receptor (Homo sapiens, UniProt P41146)
Sequence (P41146 whole entry): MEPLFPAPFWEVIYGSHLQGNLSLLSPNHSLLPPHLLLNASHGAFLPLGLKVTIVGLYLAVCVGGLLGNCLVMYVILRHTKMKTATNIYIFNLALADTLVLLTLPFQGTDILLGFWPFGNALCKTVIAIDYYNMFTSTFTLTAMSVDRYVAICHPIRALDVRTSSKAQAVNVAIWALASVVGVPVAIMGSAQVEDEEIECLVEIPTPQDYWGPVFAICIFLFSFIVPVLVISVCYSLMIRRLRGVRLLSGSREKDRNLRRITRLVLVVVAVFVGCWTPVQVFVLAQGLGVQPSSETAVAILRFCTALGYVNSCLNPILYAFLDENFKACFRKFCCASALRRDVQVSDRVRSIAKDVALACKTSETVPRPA

Substance: Ac-RYYRWKKKKKKK-NH2
- Ki: 0.5 nM
